The values below come from ChEMBL document CHEMBL1138538, “Design, synthesis, and evaluation of 10-N-substituted acridones as novel chemosensitizers in Plasmodium falciparum” (Antimicrob Agents Chemother, 2007).

A short description of experiment [1]: cells. Conditions: Mus musculus, C57BL/6J, Splenocyte, 72 h.
Description: Cytotoxicity against C57BL/6J mouse splenocytes after 72 hrs by alamar blue assay
Experiment [2] deals with Plasmodium falciparum. Put plainly: microbe, parasite or virus in culture. The following applies: Dd2, 72 h.
Experiment [3] concerns Plasmodium falciparum. Nature of the experiment: microbe, parasite or virus in culture. Conditions: D6, 72 h.
The target in experiment [4] is Sodium-dependent serotonin transporter (Homo sapiens, UniProt P31645). Format: cell-based, HEK293.
Sodium-dependent serotonin transporter, sequence (P31645 whole entry): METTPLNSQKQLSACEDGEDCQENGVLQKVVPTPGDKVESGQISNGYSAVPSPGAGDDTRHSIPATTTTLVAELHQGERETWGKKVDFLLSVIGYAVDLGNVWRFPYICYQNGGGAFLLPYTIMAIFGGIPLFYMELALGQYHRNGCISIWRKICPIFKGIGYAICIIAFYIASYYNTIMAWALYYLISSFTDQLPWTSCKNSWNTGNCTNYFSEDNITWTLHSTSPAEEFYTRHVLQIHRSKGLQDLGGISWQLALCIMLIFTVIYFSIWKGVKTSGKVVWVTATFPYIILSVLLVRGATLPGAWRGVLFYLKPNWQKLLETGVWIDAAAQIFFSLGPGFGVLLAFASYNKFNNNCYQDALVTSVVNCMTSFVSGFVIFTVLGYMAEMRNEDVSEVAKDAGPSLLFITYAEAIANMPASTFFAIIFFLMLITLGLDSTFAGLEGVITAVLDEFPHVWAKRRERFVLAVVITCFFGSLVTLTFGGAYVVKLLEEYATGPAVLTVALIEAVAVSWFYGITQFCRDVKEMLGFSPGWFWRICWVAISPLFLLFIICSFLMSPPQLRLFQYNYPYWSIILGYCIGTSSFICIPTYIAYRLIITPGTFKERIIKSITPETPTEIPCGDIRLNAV
Description: Inhibition of [3H]5HT uptake at human SERT expressed in HEK293 cells
The target in experiment [5] is Sodium-dependent dopamine transporter (Homo sapiens, UniProt Q01959).
Sodium-dependent dopamine transporter, sequence (Q01959 whole entry): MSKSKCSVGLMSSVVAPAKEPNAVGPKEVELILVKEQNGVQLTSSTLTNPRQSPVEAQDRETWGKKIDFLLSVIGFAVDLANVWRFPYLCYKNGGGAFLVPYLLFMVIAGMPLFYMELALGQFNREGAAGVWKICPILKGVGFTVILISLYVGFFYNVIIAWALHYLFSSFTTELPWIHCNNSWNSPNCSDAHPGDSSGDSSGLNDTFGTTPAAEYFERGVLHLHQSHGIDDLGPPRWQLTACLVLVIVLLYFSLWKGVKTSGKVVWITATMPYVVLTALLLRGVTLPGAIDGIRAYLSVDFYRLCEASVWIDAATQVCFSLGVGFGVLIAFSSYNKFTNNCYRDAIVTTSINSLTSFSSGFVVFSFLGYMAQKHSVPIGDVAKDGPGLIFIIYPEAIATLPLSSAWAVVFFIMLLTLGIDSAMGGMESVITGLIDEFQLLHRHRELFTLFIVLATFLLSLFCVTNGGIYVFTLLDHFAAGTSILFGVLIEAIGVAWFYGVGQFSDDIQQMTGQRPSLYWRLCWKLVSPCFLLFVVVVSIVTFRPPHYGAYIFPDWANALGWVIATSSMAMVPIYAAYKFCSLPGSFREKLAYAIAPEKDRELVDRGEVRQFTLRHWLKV
Description: Inhibition of [3H]dopamine uptake at human DAT expressed in HEK293 cells
Experiment [6] addresses Sodium-dependent noradrenaline transporter (Homo sapiens, UniProt P23975).
Description: Inhibition of [3H]norepinephrine uptake at human NET expressed in HEK293 cells
In experiment [7] the test system is Plasmodium falciparum. Nature of the experiment: Antimalarial activity after 72 hrs against chloroquine-resistant transporter 106/1'76T mutant Plasmodium falciparum infected human erythrocytes by SYBR green assay. Format: functional, organism-based.
Experiment [8] concerns Plasmodium falciparum. Put plainly: Antimalarial activity after 72 hrs against chloroquine-resistant transporter 106/1'76N mutant Plasmodium falciparum infected human erythrocytes by SYBR green assay. Format: functional, organism-based.
The target of experiment [9] is Histamine H1 receptor (Homo sapiens, UniProt P35367). Nature of the experiment: biochemical. It counts as cell-based, CHO.
Histamine H1 receptor, sequence (P35367 whole entry): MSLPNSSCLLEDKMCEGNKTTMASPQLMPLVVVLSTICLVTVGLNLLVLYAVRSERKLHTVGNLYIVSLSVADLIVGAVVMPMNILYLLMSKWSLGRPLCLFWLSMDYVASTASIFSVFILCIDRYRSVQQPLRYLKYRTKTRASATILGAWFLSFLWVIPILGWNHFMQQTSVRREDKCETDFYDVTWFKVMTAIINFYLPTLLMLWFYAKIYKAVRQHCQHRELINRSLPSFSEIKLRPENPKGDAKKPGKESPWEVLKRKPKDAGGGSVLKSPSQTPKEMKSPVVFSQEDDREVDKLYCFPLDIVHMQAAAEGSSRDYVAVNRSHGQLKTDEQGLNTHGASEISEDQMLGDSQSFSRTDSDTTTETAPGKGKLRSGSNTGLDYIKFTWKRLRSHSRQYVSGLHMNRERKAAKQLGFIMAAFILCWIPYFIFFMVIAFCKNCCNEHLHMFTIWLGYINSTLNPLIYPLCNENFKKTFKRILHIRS
Description: Displacement of [3H]pyrilamine from human histamine receptor subtype 1 expressed in CHO cells
Experiment [10] has as its system Plasmodium falciparum. Nature of the experiment: Chemosensitizing activity after 72 hrs against chloroquine-sensitive Plasmodium falciparum D6 infected human erythrocytes as IC50 ratio desethylchloroquine +/- 500 nM drug by SYBR green assay. Format: functional.
The test system of experiment [11] is Plasmodium falciparum. Put plainly: Chemosensitizing activity after 72 hrs against chloroquine-resistant Plasmodium falciparum Dd2 infected human erythrocytes as IC50 ratio desethylchloroquine +/- 500 nM by SYBR green assay. It counts as functional.
Experiment [12] has as its system Plasmodium falciparum. Nature of the experiment: Chemosensitizing activity after 72 hrs against chloroquine-sensitive Plasmodium falciparum D6 infected human erythrocytes as IC50 ratio quinine +/- 500 nM by SYBR green assay. Format: functional.
Experiment [13] has as its system Plasmodium falciparum. Put plainly: Chemosensitizing activity after 72 hrs against chloroquine-resistant Plasmodium falciparum Dd2 infected human erythrocytes as IC50 ratio quinine +/- 500 nM by SYBR green assay. Format: functional.
For experiment [14], the system named is Plasmodium falciparum. Put plainly: Antimalarial activity after 72 hrs against chloroquine-resistant transporter 106/1'76I mutant Plasmodium falciparum infected in human erythrocytes by SYBR green assay. It counts as functional, organism-based.

In general, IC50 refers to the midpoint of a concentration-inhibition curve.

Sodium-dependent noradrenaline transporter, sequence (P23975 whole entry): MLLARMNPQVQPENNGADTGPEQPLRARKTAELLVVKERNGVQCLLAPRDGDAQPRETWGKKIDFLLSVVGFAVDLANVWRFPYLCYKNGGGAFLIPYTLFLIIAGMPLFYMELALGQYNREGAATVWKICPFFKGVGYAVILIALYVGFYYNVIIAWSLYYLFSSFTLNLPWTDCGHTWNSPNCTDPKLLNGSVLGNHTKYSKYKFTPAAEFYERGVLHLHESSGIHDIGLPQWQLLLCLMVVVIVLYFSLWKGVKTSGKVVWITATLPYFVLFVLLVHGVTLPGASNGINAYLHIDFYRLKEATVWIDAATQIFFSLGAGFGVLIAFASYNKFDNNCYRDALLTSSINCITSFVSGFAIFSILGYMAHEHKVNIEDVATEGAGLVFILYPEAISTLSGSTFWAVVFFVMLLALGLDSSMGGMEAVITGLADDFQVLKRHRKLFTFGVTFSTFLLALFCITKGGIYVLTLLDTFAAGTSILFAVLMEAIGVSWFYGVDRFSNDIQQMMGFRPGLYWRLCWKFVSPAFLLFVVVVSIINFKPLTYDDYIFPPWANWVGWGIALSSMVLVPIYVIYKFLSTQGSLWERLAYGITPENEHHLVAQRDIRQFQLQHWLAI

Turning to `O=c1c2ccccc2n(CCCCCCCl)c2ccccc12`, the IC50 in [1] came out at 59.5 µM; in experiment [2] it was 2.6 µM; in experiment [3] it was 1.3 µM.

For the molecule `CCN(CC)CCCCCn1c2ccccc2c(=O)c2ccccc21`, the 50% inhibitory concentration (IC50) was 7.8 µM in experiment [4]; over 10 µM in experiment [5]; 9.1 µM in experiment [6]; 30.5 µM in experiment [1]; 5.8 µM in [2]; 3.7 µM in [3].

On to `CCNCCCC(C)Nc1ccnc2cc(Cl)ccc12` (centres undefined) [DESETHYLCHLOROQUINE], for which the IC50 stood at 0.372 µM in experiment [2] and 0.0182 µM in experiment [3].

Take `CCN(CC)CCCCCCn1c2ccccc2c(=O)c2ccccc21`: the IC50 in experiment [4] was 3.5 µM; in experiment [7], 4.5 µM; in experiment [8] it was 0.596 µM; in [9] it was 3.6 µM; in [14], 3.66 µM; in experiment [5], over 10 µM. For the same molecule, the IC50 in experiment [6] was over 10 µM; in [1], 26.4 µM; in experiment [2] it was 2.7 µM; in experiment [3], 3.2 µM. In addition, the “Ratio IC50” value was determined as 0.17 in experiment [10], 1.01 in experiment [11], 0.3 in experiment [12] and 1 in experiment [13].

Consider `CCN(CC)CCn1c2ccccc2c(=O)c2ccccc21`, for which the IC50 is over 10 µM in experiment [4]; over 10 µM in [5]; over 10 µM in [6]; 28.5 µM in experiment [1]; 7.5 µM in [2]; 11.8 µM in [3].

As to `CCN(CC)CCCn1c2ccccc2c(=O)c2ccccc21`, the IC50 in [4] was over 10 µM; in experiment [5] it was over 10 µM; in [6] it was over 10 µM; in experiment [1], 22.5 µM; in experiment [2], 1.6 µM; in experiment [3] it was 8.1 µM.

With `CCN(CC)CCCCCCCCn1c2ccccc2c(=O)c2ccccc21`, the results for the IC50 in [1], in [2] and in [3] were 17.6 µM, 1.8 µM and 2.6 µM, respectively.

As to `CCN(CC)CCCCn1c2ccccc2c(=O)c2ccccc21`, the IC50 in [4] was over 10 µM; in experiment [5], over 10 µM; in experiment [6], over 10 µM; in experiment [1] it was 34.5 µM; in experiment [2], 10.2 µM; in [3], 7.6 µM.

Take `CN(C)CCC(c1ccc(Cl)cc1)c1ccccn1` (centres undefined) [CHLORPHENIRAMINE]: the IC50 in experiment [1] was determined as 33.4 µM; in experiment [2] it was 3.9 µM; in experiment [3], 61.2 µM.
